Details: Liquid, Vibrating tube method

CC(C)C(C)C(C)C [2,3,4-trimethylpentane]
Details | mass density [kg/m3]
283.15 K, 130 kPa | 728.3
283.15 K, 4973 kPa | 732.2
283.15 K, 9993 kPa | 736
283.15 K, 14965 kPa | 739.6
283.15 K, 20000 kPa | 743
283.15 K, 25003 kPa | 746.3
283.15 K, 29990 kPa | 749.5
283.15 K, 35009 kPa | 752.5
283.15 K, 39961 kPa | 755.4
283.15 K, 45014 kPa | 758.3
283.15 K, 49986 kPa | 761
283.15 K, 54944 kPa | 763.6
283.15 K, 60030 kPa | 766.3
283.15 K, 65014 kPa | 768.8
288.15 K, 102 kPa | 724.3
288.15 K, 5015 kPa | 728.4
288.15 K, 9991 kPa | 732.3
288.15 K, 14975 kPa | 736
288.15 K, 20038 kPa | 739.6
288.15 K, 25021 kPa | 743
288.15 K, 29929 kPa | 746.1
288.15 K, 35037 kPa | 749.3
288.15 K, 40039 kPa | 752.3
288.15 K, 44998 kPa | 755.2
288.15 K, 49927 kPa | 757.9
288.15 K, 54967 kPa | 760.6
288.15 K, 59925 kPa | 763.2
288.15 K, 65032 kPa | 765.9
293.15 K, 111 kPa | 720.4
293.15 K, 5021 kPa | 724.6
293.15 K, 9998 kPa | 728.6
293.15 K, 14997 kPa | 732.4
293.15 K, 19997 kPa | 736.1
293.15 K, 25022 kPa | 739.6
293.15 K, 29930 kPa | 742.8
293.15 K, 34968 kPa | 746
293.15 K, 39974 kPa | 749.1
293.15 K, 45009 kPa | 752
293.15 K, 49965 kPa | 754.9
293.15 K, 54987 kPa | 757.6
293.15 K, 59945 kPa | 760.3
293.15 K, 65000 kPa | 762.9
298.15 K, 105 kPa | 716.2
298.15 K, 5072 kPa | 720.6
298.15 K, 9964 kPa | 724.7
298.15 K, 15013 kPa | 728.7
298.15 K, 20054 kPa | 732.5
298.15 K, 25008 kPa | 736
298.15 K, 29968 kPa | 739.4
298.15 K, 34937 kPa | 742.6
298.15 K, 40018 kPa | 745.8
298.15 K, 45064 kPa | 748.8
298.15 K, 50010 kPa | 751.7
298.15 K, 55015 kPa | 754.5
298.15 K, 59955 kPa | 757.2
298.15 K, 65024 kPa | 759.9
303.15 K, 100 kPa | 712
303.15 K, 4934 kPa | 716.5
303.15 K, 10038 kPa | 720.9
303.15 K, 14973 kPa | 724.9
303.15 K, 19957 kPa | 728.7
303.15 K, 25002 kPa | 732.4
303.15 K, 29980 kPa | 735.9
303.15 K, 34972 kPa | 739.3
303.15 K, 39972 kPa | 742.5
303.15 K, 44990 kPa | 745.6
303.15 K, 49984 kPa | 748.5
303.15 K, 54948 kPa | 751.4
303.15 K, 59951 kPa | 754.2
303.15 K, 65040 kPa | 756.9
308.15 K, 92 kPa | 707.8
308.15 K, 5051 kPa | 712.5
308.15 K, 9961 kPa | 716.8
308.15 K, 14959 kPa | 721
308.15 K, 20027 kPa | 725
308.15 K, 25025 kPa | 728.8
308.15 K, 29996 kPa | 732.4
308.15 K, 34959 kPa | 735.7
308.15 K, 40017 kPa | 739.1
308.15 K, 45023 kPa | 742.2
308.15 K, 49965 kPa | 745.2
308.15 K, 54977 kPa | 748.2
308.15 K, 60020 kPa | 751
308.15 K, 64995 kPa | 753.8
313.15 K, 99 kPa | 703.6
313.15 K, 4997 kPa | 708.5
313.15 K, 9998 kPa | 713.1
313.15 K, 15010 kPa | 717.4
313.15 K, 19994 kPa | 721.4
313.15 K, 25007 kPa | 725.3
313.15 K, 29995 kPa | 729
313.15 K, 35008 kPa | 732.4
313.15 K, 39993 kPa | 735.8
313.15 K, 45005 kPa | 739
313.15 K, 49990 kPa | 742.1
313.15 K, 55003 kPa | 745.1
313.15 K, 59996 kPa | 748
313.15 K, 64993 kPa | 750.8
318.15 K, 104 kPa | 699.5
318.15 K, 4961 kPa | 704.4
318.15 K, 10003 kPa | 709.2
318.15 K, 15026 kPa | 713.7
318.15 K, 19937 kPa | 717.8
318.15 K, 25012 kPa | 721.8
318.15 K, 29990 kPa | 725.5
318.15 K, 34991 kPa | 729.1
318.15 K, 39976 kPa | 732.5
318.15 K, 45028 kPa | 735.8
318.15 K, 49973 kPa | 739
318.15 K, 54916 kPa | 742
318.15 K, 59988 kPa | 744.9
318.15 K, 65015 kPa | 747.8
323.15 K, 111 kPa | 695.4
323.15 K, 5025 kPa | 700.6
323.15 K, 10013 kPa | 705.5
323.15 K, 14973 kPa | 710
323.15 K, 20028 kPa | 714.4
323.15 K, 25014 kPa | 718.4
323.15 K, 29976 kPa | 722.2
323.15 K, 34994 kPa | 725.9
323.15 K, 39992 kPa | 729.4
323.15 K, 45046 kPa | 732.8
323.15 K, 49980 kPa | 736
323.15 K, 54968 kPa | 739.1
323.15 K, 59988 kPa | 742.1
323.15 K, 65068 kPa | 745
328.15 K, 94 kPa | 691.3
328.15 K, 4971 kPa | 696.6
328.15 K, 9997 kPa | 701.7
328.15 K, 14959 kPa | 706.4
328.15 K, 19969 kPa | 710.9
328.15 K, 25055 kPa | 715.1
328.15 K, 29960 kPa | 719
328.15 K, 34966 kPa | 722.7
328.15 K, 40013 kPa | 726.3
328.15 K, 45034 kPa | 729.8
328.15 K, 50015 kPa | 733.1
328.15 K, 54973 kPa | 736.2
328.15 K, 59955 kPa | 739.2
328.15 K, 64992 kPa | 742.2
333.15 K, 95 kPa | 687.1
333.15 K, 4934 kPa | 692.6
333.15 K, 9973 kPa | 697.9
333.15 K, 14973 kPa | 702.8
333.15 K, 19993 kPa | 707.4
333.15 K, 24959 kPa | 711.6
333.15 K, 29952 kPa | 715.7
333.15 K, 34974 kPa | 719.5
333.15 K, 39961 kPa | 723.2
333.15 K, 44999 kPa | 726.7
333.15 K, 49992 kPa | 730.1
333.15 K, 54798 kPa | 733.2
333.15 K, 59952 kPa | 736.4
333.15 K, 65050 kPa | 739.5
338.15 K, 115 kPa | 683.1
338.15 K, 4978 kPa | 688.9
338.15 K, 9970 kPa | 694.3
338.15 K, 14966 kPa | 699.3
338.15 K, 19960 kPa | 703.9
338.15 K, 24994 kPa | 708.4
338.15 K, 30030 kPa | 712.5
338.15 K, 34973 kPa | 716.3
338.15 K, 39979 kPa | 720
338.15 K, 45024 kPa | 723.6
338.15 K, 50019 kPa | 727.1
338.15 K, 54928 kPa | 730.3
338.15 K, 59953 kPa | 733.5
338.15 K, 64998 kPa | 736.6
343.15 K, 109 kPa | 678.8
343.15 K, 5084 kPa | 684.9
343.15 K, 9963 kPa | 690.4
343.15 K, 15039 kPa | 695.6
343.15 K, 20010 kPa | 700.4
343.15 K, 24998 kPa | 704.9
343.15 K, 30054 kPa | 709.2
343.15 K, 35048 kPa | 713.2
343.15 K, 40023 kPa | 717
343.15 K, 44967 kPa | 720.6
343.15 K, 50023 kPa | 724.2
343.15 K, 54967 kPa | 727.5
343.15 K, 59995 kPa | 730.7
343.15 K, 64954 kPa | 733.8
348.15 K, 112 kPa | 674.5
348.15 K, 5011 kPa | 680.8
348.15 K, 10066 kPa | 686.6
348.15 K, 14992 kPa | 691.9
348.15 K, 19955 kPa | 696.8
348.15 K, 25042 kPa | 701.5
348.15 K, 29986 kPa | 705.8
348.15 K, 35004 kPa | 709.9
348.15 K, 40002 kPa | 713.9
348.15 K, 44996 kPa | 717.6
348.15 K, 49994 kPa | 721.1
348.15 K, 54995 kPa | 724.6
348.15 K, 60005 kPa | 727.9
348.15 K, 65009 kPa | 731
353.15 K, 109 kPa | 670.1
353.15 K, 4963 kPa | 676.6
353.15 K, 9919 kPa | 682.5
353.15 K, 15039 kPa | 688.2
353.15 K, 19995 kPa | 693.2
353.15 K, 24983 kPa | 698
353.15 K, 29960 kPa | 702.4
353.15 K, 34985 kPa | 706.7
353.15 K, 39983 kPa | 710.7
353.15 K, 45037 kPa | 714.5
353.15 K, 49989 kPa | 718.1
353.15 K, 54953 kPa | 721.6
353.15 K, 59909 kPa | 724.9
353.15 K, 65052 kPa | 728.2
358.15 K, 118 kPa | 665.9
358.15 K, 4955 kPa | 672.5
358.15 K, 9916 kPa | 678.7
358.15 K, 15035 kPa | 684.5
358.15 K, 19946 kPa | 689.6
358.15 K, 25037 kPa | 694.6
358.15 K, 29963 kPa | 699.2
358.15 K, 35027 kPa | 703.4
358.15 K, 40010 kPa | 707.5
358.15 K, 44955 kPa | 711.4
358.15 K, 50023 kPa | 715.1
358.15 K, 54980 kPa | 718.7
358.15 K, 59952 kPa | 722
358.15 K, 65021 kPa | 725.4
363.15 K, 101 kPa | 661.3
363.15 K, 4941 kPa | 668.3
363.15 K, 9928 kPa | 674.7
363.15 K, 15005 kPa | 680.6
363.15 K, 19958 kPa | 686
363.15 K, 24923 kPa | 691
363.15 K, 29983 kPa | 695.8
363.15 K, 34922 kPa | 700.1
363.15 K, 39992 kPa | 704.4
363.15 K, 45038 kPa | 708.4
363.15 K, 49985 kPa | 712.2
363.15 K, 54981 kPa | 715.8
363.15 K, 59985 kPa | 719.3
363.15 K, 65038 kPa | 722.6
